# Reference: patent US20100120700A1, “METHODS AND COMPOSITIONS FOR TREATING CERVICAL CANCER” (priority 2000, published 2010)
# Entries after “also recorded” stand apart in the source; their conditions may differ.
# Columns and labels:
# AF6 domain 1 = biological target: T1, AF6 domain 1 (Homo sapiens, UniProt P55196); assay: G assay PDZ-PL binding; settings: peptide 10 uM, protein 5
# T1 construct: made in house; host or cells: E. coli (DH5alpha or BL-21)
# [1] = tested on: c-JUN N-terminal kinase (JNK); assay: Jun kinase assay in microinjected Xenopus oocytes; format: cell-based
# Procedure: Experimental Design: This experiment was divided into two phases. In the first phase, an MBP-E6 fusion protein (HPV16; see example 4) was microinjected into Xenopus oocytes at different concetrations and then the oocytes were assayed for INK activity. In the second phase, peptides corresponding to the C-termini of non-oncogenic E6 protein (HPV11), HPV16 E6 (oncogenic) or Tax (shown to block oncogenic E6 binding to PDZ domains, FIG. 3) were co-injected with an activating amount of MBP-E6 fusion protein to assess ther abilities to block JNK activation.
# Isolation and Microinjection of Oocytes—Xenopus ovarian tissue was surgically removed, and oocytes were defolliculated for 1-1.5 h at room temperature with 2 mg/ml collagenase and 0.5 mg/ml polyvinylpyrrolidone in Ca21-free modified Barth's solution (88 mM NaCl, 1 mM KCl, 0.82 mM MgSO4, 2.4 mM NaHCO3, 10 mM HEPES, pH 7.5). The oocytes were then washed four times with modified Barth's solution. Stage VI oocytes were sorted manually and incubated at 16° C. for at least 10 h in OR2 solution (82.5 mM NaCl, 2.5 mM KCl, 1 mM CaCl2, 1 mM Na2HPO4, 5 mM HEPES, pH 7.5) supplemented with 1 mg/ml bovine serum albumin and […] gentamicin. Immature oocytes were microinjected with purified MBP-E6 protein or E6 protein and peptide and transferred to fresh OR2 for the duration of the time course. Five oocytes were collected per time point, frozen on dry ice, and stored at −80° C.
# Lysis of Oocytes, Eggs, and Embryos—Frozen oocytes, eggs, and embryos were thawed rapidly and lysed by pipetting up and down in 60 ml of ice-cold extraction buffer (EB) (0.25 M sucrose, 0.1 M NaCl, 2.5 mM MgCl2, 20 mM HEPES, pH 7.2) containing 10 mM EDTA, protease inhibitors (10 mg/ml leupeptin, 10 mg/ml pepstatin, 10 mg/ml aprotinin, 1 mM phenylmethylsulfonyl fluoride), and phosphatase inhibitors (50 mM 2-glycerophosphate, 1 mM sodium orthovanadate, 2 mM microcystin). Samples were clarified by centrifugation for 2.5 min in a Beckman E microcentrifuge with a right angle rotor. Crude cytoplasm was collected and processed for immunoblotting or kinase assays, as described below.
# Jun Kinase Assay—Jun kinase assays were performed as described. Crude oocyte, egg, or embryo cytoplasm was diluted 1:1 in EB and pre-cleared with 20 ml of glutathione-Sepharose beads (Amersham Pharmacia Biotech) for 1 h at 4° C. with moderate shaking. Lysates were incubated with glutathione S-transferase GST-c-Jun-(1-79) fusion protein (hereafter denoted GST-Jun) immobilized on glutathione- Sepharose beads. After 3 h at 4° C., the beads were washed three times with 50 mM HEPES, pH 7.5, 150 mM NaCl, 1% Triton X-100, 1 mM EDTA, 10% glycerol, 10 mM sodium pyrophosphate, 2 mM sodium orthovanadate, 10 mM sodium fluoride, 1 mM phenylmethylsulfonyl fluoride, and 10 mg/ml aprotinin (24) and once with 0.4 ml of kinase buffer (20 mM HEPES, pH 7.5, 10 mM MgCl2, 1 mM dithiothreitol, 200 mM sodium orthovanadate). The bound JNK activity was detected by the addition of 1 mCi of [g-32]JATP. The reaction was terminated after 20 min at 30° C., and the products were resolved by SDS-PAGE. The gels were transferred to PVDF membranes (Hybond; Amersham Pharmacia Biotech) and the incorporation of [32P]phosphate into GST-Jun was visualized by autoradiography. […]
# T1 sequence (P55196 1001-1093): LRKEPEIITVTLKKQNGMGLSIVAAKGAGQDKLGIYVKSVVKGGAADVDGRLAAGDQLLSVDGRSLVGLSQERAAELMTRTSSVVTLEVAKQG
substance,measurement,setting,value
"20 mer peptide corresponding to the C-terminus of HPV16 E6 (PDZ ligand), biotinylated in binding assays; ends SSRTRRETQL (SEQ ID NO: 13) [HPV E6 #16]",Ave OD,AF6 domain 1; A450 nm,0.444
same,OD S/N,AF6 domain 1; vs GST only well,1.80
same,inhibition of HPV16 E6-dependent JNK activation by co-injected peptide,[1],can be inhibited by peptide representing HPV E6 16 oncoprotein; also recorded: can be inhibited by peptide representing the c-terminus of the HPV16 E6 oncoprotein; also recorded: blocked E6-dependent INK activation
